Assay results from patent US4201866A, “O-Hemi-succinate of propranolol” (American Home Products Corporation, priority 1977, dated 1980).
Counter-ions that a name gives are not always drawn.

Assay: Oral administration of the compound of Example 6; plasma levels (Example 7)
Assay type: in vivo
Conditions: beagle dogs
Procedure: In this experiment, four beagle dogs were given an 80 mg. oral dose of propranolol HCl or an equivalent dose of the o-hemi-succinate. The animals were divided into two groups of two, each group receiving the drugs according to a crossover design. The crossover experiment was repeated twice. A period of at least one week elapsed between each dosing day. Blood samples were obtained at regular intervals after dosing a plasma was analyzed for free propranolol concentrations.
The compound of Example 6 was orally administered to beagle dogs in a similar manner as Example 2. Plasma levels of the compound of Example 6 were twice as high as those obtained after an equivalent dose of propranol hydrochloride.

Compound: CCOC(=O)CCC(=O)OC(CNC(C)C)COc1cccc2ccccc12 (stereo not shown) [Example 6, Butanedioic acid-1-[(2-(1-methylethyl)amino] -1-[(1-naphtalenyloxy)methyl]diethylether hydrochloride]
- Plasma levels compared with equivalent dose of propranolol hydrochloride: twice as high
